# Test results as given in patent US4325949A, “Combinations of agents which give enhanced anti-inflammatory activity” (American Cyanamid Company, priority 1980, dated 1982).
# Several values for one entry are separate records, joined by “and”; a condition that tells them apart may be missing. Equal values may be shown once.
# Tests used:
# [1] = test system: adjuvant induced arthritis; assay: adjuvant induced arthritis test in the rat (primary and secondary lesions); type: in vivo, rat (Royal Hart, Wistar strain)
# Protocol: (§1) Groups of three Royal Hart, Wistar strain rats, weighing 200±10 g. each were injected intradermally in the right hind paw with Freund's adjuvant (dried human tubercle bacilli in a mineral oil vehicle) at a dose of 2 mg./kg. of body weight. Test compositions were administered orally in a 1.5% starch vehicle at various doses once daily on days 0 through 13 post challenge. Control rats were treated in a similar manner, but given only starch vehicle. On the 14th, 21st, 28th and 35th days post challenge the diameter of the injected paw (primary lesion) was measured by micrometer caliper. The volume of inflamed paws were estimated from these measurements and the results are expressed as percent inhibition of swelling as compared to controls. At the same time, the other inflamed sites, such as ears, paws and tail (secondary lesions) were observed and each rat was graded as to degree of inflammation and swelling present. The grading is based on a scale of 0 to 24, where 0 represents a complete absence of induced arthritic modules and 24 represents the maximum degree of inflammation. The mean grade for each treated group is calculated and the effects of each test compound are expressed as percent inhibition of the control grade. The following Tables I-V record the results of tests conducted with the compositions of this invention and conventional anti-inflammatory agents both separately and in combination. All tests were replicated several times. Each treatment group represents a total of 18 rats. Each challenged control group comprised 36 rats and each unchallenged control group was 9 rats.
# [2] = body weight gain in the adjuvant induced arthritis test in the rat; type: in vivo, rat (Royal Hart, Wistar strain)
# Protocol: as §1
# [3] = oral 25 mg/kg once daily, day 14
# [4] = oral 25 mg/kg once daily, day 21
# [5] = oral 50 mg/kg once daily, day 14
# [6] = oral 50 mg/kg once daily, day 21
# [7] = oral 100 mg/kg once daily, day 14
# [8] = oral 100 mg/kg once daily, day 21
# [9] = oral 50 mg/kg once daily, day 35
# [10] = oral 100 mg/kg once daily, day 21, 100 mg/kg
# [11] = oral 12.5 mg/kg once daily, day 14, 12.5 mg/kg
# [12] = oral 12.5 mg/kg once daily, day 21, 12.5 mg/kg
# [13] = oral 12.5 mg/kg once daily, day 28
# [14] = oral 12.5 mg/kg once daily, day 35, 12.5 mg/kg
# [15] = oral 25 mg/kg once daily, day 14, 25 mg/kg
# [16] = oral 25 mg/kg once daily, day 21, 25 mg/kg
# [17] = oral 25 mg/kg once daily, day 28, 25 mg/kg
# [18] = oral 25 mg/kg once daily, day 35, 25 mg/kg
# [19] = oral 25 mg/kg once daily, day 28
# [20] = oral 25 mg/kg once daily, day 35
# [21] = oral 50 mg/kg once daily, day 28
# [22] = oral 5 mg/kg once daily, day 14
# [23] = oral 5 mg/kg once daily, day 21
# [24] = oral 5 mg/kg once daily, day 28
# [25] = oral 5 mg/kg once daily, day 35
# [26] = oral 10 mg/kg once daily, day 14
# [27] = oral 10 mg/kg once daily, day 21
# [28] = oral 10 mg/kg once daily, day 28
# [29] = oral 10 mg/kg once daily, day 35
smiles,measurement,setting,value
N#CCC(=N)c1ccccc1 [Benzimidoylacetonitrile],Primary Lesions (% Inhibition),[1]; [3],56%
same,Secondary Lesions (% Inhibition),[1]; [3],63%
same,Primary Lesions (% Inhibition),[1]; [4],33%
same,Secondary Lesions (% Inhibition),[1]; [4],24%
same,Primary Lesions (% Inhibition),[1]; [5],68%
same,Secondary Lesions (% Inhibition),[1]; [5],70%
same,Primary Lesions (% Inhibition),[1]; [6],58%
same,Secondary Lesions (% Inhibition),[1]; [6],43%
same,Primary Lesions (% Inhibition),[1]; [7],68%
same,Secondary Lesions (% Inhibition),[1]; [7],75%
same,Primary Lesions (% Inhibition),[1]; [8],55%
same,Secondary Lesions (% Inhibition),[1]; [8],34%
same,Body Weight Gain in Grams,[2]; [3],72 Grams
same,Body Weight Gain in Grams,[2]; [4],66 Grams
same,Body Weight Gain in Grams,[2]; [5],77 Grams
same,Body Weight Gain in Grams,[2]; [6],80 Grams
same,Body Weight Gain in Grams,[2]; [7],70 Grams
same,Body Weight Gain in Grams,[2]; [8],88 Grams
"CC(=O)Oc1ccccc1C(=O)O [Aspirin, 2-(acetyloxy)benzoic acid, reference compound]",Primary Lesions (% Inhibition),"[1]; oral 50 mg/kg once daily, day 14, 50 mg/kg",21% and 16%
same,Secondary Lesions (% Inhibition),"[1]; oral 50 mg/kg once daily, day 21, 50 mg/kg",12% and 10%
same,Secondary Lesions (% Inhibition),"[1]; oral 50 mg/kg once daily, day 28, 50 mg/kg",31% and 20%
same,Primary Lesions (% Inhibition),[1]; [9],0%
same,Primary Lesions (% Inhibition),[1]; [10],8% and 2%
same,Primary Lesions (% Inhibition),"[1]; oral 100 mg/kg once daily, day 35, 100 mg/kg",5% and 1%
same,Body Weight Gain in Grams,"[2]; oral 100 mg/kg once daily, day 14, 100 mg/kg",45 Grams and 47 Grams
same,Body Weight Gain in Grams,[2]; [10],42 Grams and 46 Grams
same,Body Weight Gain in Grams,"[2]; oral 100 mg/kg once daily, day 28, 100 mg/kg",44 Grams and 57 Grams
N#CCC(=O)c1ccccc1 [Benzoylacetonitrile],Primary Lesions (% Inhibition),[1]; [11],44% and 49%
same,Secondary Lesions (% Inhibition),[1]; [11],45% and 59%
same,Primary Lesions (% Inhibition),[1]; [12],16% and 32%
same,Secondary Lesions (% Inhibition),[1]; [13],25%
same,Secondary Lesions (% Inhibition),[1]; [14],22% and 26%
same,Primary Lesions (% Inhibition),[1]; [15],60% and 62% and 36%
same,Secondary Lesions (% Inhibition),[1]; [15],70% and 62% and 50%
same,Primary Lesions (% Inhibition),[1]; [16],36% and 38% and 24%
same,Secondary Lesions (% Inhibition),[1]; [17],20% and 19%
same,Secondary Lesions (% Inhibition),[1]; [18],38% and 20%
same,Primary Lesions (% Inhibition),[1]; [5],60%
same,Secondary Lesions (% Inhibition),[1]; [5],66%
same,Primary Lesions (% Inhibition),[1]; [6],45%
same,Secondary Lesions (% Inhibition),[1]; [6],43%
same,Primary Lesions (% Inhibition),[1]; [7],55%
same,Secondary Lesions (% Inhibition),[1]; [7],76%
same,Primary Lesions (% Inhibition),[1]; [8],54%
same,Secondary Lesions (% Inhibition),[1]; [8],56%
same,Body Weight Gain in Grams,[2]; [11],57 Grams and 49 Grams
same,Body Weight Gain in Grams,[2]; [12],53 Grams and 38 Grams
same,Body Weight Gain in Grams,[2]; [13],55 Grams
same,Body Weight Gain in Grams,[2]; [14],81 Grams and 68 Grams
same,Body Weight Gain in Grams,[2]; [15],52 Grams and 47 Grams and 57 Grams
same,Body Weight Gain in Grams,[2]; [16],52 Grams and 47 Grams and 57 Grams
same,Body Weight Gain in Grams,[2]; [17],75 Grams and 51 Grams
same,Body Weight Gain in Grams,[2]; [18],86 Grams and 69 Grams
same,Body Weight Gain in Grams,[2]; [5],58 Grams
same,Body Weight Gain in Grams,[2]; [6],62 Grams
same,Body Weight Gain in Grams,[2]; [7],56 Grams
same,Body Weight Gain in Grams,[2]; [8],79 Grams
N#CCC(=O)c1ccc(F)cc1 [(p-Fluorobenzoyl)-acetonitrile],Primary Lesions (% Inhibition),[1]; [3],30%
same,Secondary Lesions (% Inhibition),[1]; [3],23%
same,Primary Lesions (% Inhibition),[1]; [4],17%
same,Secondary Lesions (% Inhibition),[1]; [4],0%
same,Primary Lesions (% Inhibition),[1]; [19],0%
same,Secondary Lesions (% Inhibition),[1]; [19],0%
same,Primary Lesions (% Inhibition),[1]; [20],6%
same,Secondary Lesions (% Inhibition),[1]; [20],7%
same,Primary Lesions (% Inhibition),[1]; [5],53%
same,Secondary Lesions (% Inhibition),[1]; [5],34%
same,Primary Lesions (% Inhibition),[1]; [6],32%
same,Secondary Lesions (% Inhibition),[1]; [6],10%
same,Primary Lesions (% Inhibition),[1]; [21],27%
same,Secondary Lesions (% Inhibition),[1]; [21],28%
same,Primary Lesions (% Inhibition),[1]; [9],22%
same,Secondary Lesions (% Inhibition),[1]; [9],19%
same,Body Weight Gain in Grams,[2]; [3],71 Grams
same,Body Weight Gain in Grams,[2]; [4],65 Grams
same,Body Weight Gain in Grams,[2]; [19],80 Grams
same,Body Weight Gain in Grams,[2]; [20],111 Grams
same,Body Weight Gain in Grams,[2]; [5],75 Grams
same,Body Weight Gain in Grams,[2]; [6],77 Grams
same,Body Weight Gain in Grams,[2]; [21],93 Grams
same,Body Weight Gain in Grams,[2]; [9],125 Grams
N#CC=C(N)c1cccs1 [β-Amino-2-thiopheneacrylonitrile],Primary Lesions (% Inhibition),[1]; [5],16%
same,Secondary Lesions (% Inhibition),[1]; [5],13%
same,Primary Lesions (% Inhibition),[1]; [6],14%
same,Secondary Lesions (% Inhibition),[1]; [6],0%
same,Primary Lesions (% Inhibition),[1]; [21],6%
same,Secondary Lesions (% Inhibition),[1]; [21],4%
same,Primary Lesions (% Inhibition),[1]; [9],1%
same,Secondary Lesions (% Inhibition),[1]; [9],11%
same,Body Weight Gain in Grams,[2]; [5],63 Grams
same,Body Weight Gain in Grams,[2]; [6],66 Grams
same,Body Weight Gain in Grams,[2]; [21],76 Grams
same,Body Weight Gain in Grams,[2]; [9],108 Grams
"C[C@]12C=CC(=O)C=C1CC[C@@H]1[C@@H]2[C@@H](O)C[C@@]2(C)[C@H]1CC[C@]2(O)C(=O)CO [Prednisolone, reference compound]",Primary Lesions (% Inhibition),[1]; [22],63%
same,Secondary Lesions (% Inhibition),[1]; [22],45%
same,Primary Lesions (% Inhibition),[1]; [23],24%
same,Secondary Lesions (% Inhibition),[1]; [23],16%
same,Primary Lesions (% Inhibition),[1]; [24],17%
same,Secondary Lesions (% Inhibition),[1]; [24],5%
same,Primary Lesions (% Inhibition),[1]; [25],11%
same,Secondary Lesions (% Inhibition),[1]; [25],20%
same,Primary Lesions (% Inhibition),[1]; [26],57%
same,Secondary Lesions (% Inhibition),[1]; [26],55%
same,Primary Lesions (% Inhibition),[1]; [27],24%
same,Secondary Lesions (% Inhibition),[1]; [27],21%
same,Primary Lesions (% Inhibition),[1]; [28],14%
same,Secondary Lesions (% Inhibition),[1]; [28],3%
same,Primary Lesions (% Inhibition),[1]; [29],13%
same,Secondary Lesions (% Inhibition),[1]; [29],17%
same,Body Weight Gain in Grams,[2]; [22],22 Grams
same,Body Weight Gain in Grams,[2]; [23],26 Grams
same,Body Weight Gain in Grams,[2]; [24],44 Grams
same,Body Weight Gain in Grams,[2]; [25],71 Grams
same,Body Weight Gain in Grams,[2]; [26],23 Grams
same,Body Weight Gain in Grams,[2]; [27],47 Grams
same,Body Weight Gain in Grams,[2]; [28],75 Grams
same,Body Weight Gain in Grams,[2]; [29],95 Grams
